# Data as given in US12459922B2 (Gilead Sciences, Inc., priority 2022, dated 2025).
# Tested on: endogenous cellular STAT1 (phosphorylated at Tyr701) in NCI-H1373 cells
# Assay: Phospho-STAT1 (Tyr701) LANCE Ultra TR-FRET Detection Assay
# Type: cell-based
# Settings: Homo sapiens, NCI-H1373, 48 h, phospho-STAT1 (Tyr701) induction, read-out: NH1373 pSTAT1 EC50
# Experimental: Phospho-STAT1 (Tyr701 LANCE Ultra TR-FRET Detection Assay
# d. LANCE Ultra phospho-STAT1 (Tyr701) kits are designed for the detection of phosphorylated STAT1 in cell lysates using a simple, homogeneous LANCE Ultra sandwich assay (Cat. #TRF4028M). This assay is intended for assessing compound induction of endogenous levels of cellular STAT1 (phosphorylated at Tyr701) in NCI-H1373 cells. The NCI-H1373 cells are cultured in RPMI 1640 media containing 10% heat inactivated FBS, GlutaMAX, 1% Penicillin-Streptomycin. An Echo acoustic liquid handler is used to transfer 60 nanoliters of compound dilutions using the Echo Qualified, 384-well polypropylene microplate clear flat bottom source plates into a Greiner (#781080) cell culture microplate. NCI-H1373 cells are seeded into these compound-spotted culture plates at 30,000 cells/well in a 60 uL volume in growth media. The plates are incubated in a 5% CO2 humidified incubator at 37° C. for 48 hours. […] After spinning the plate down at 300 rpm for 1 min, the plate is read on an EnVision plate reader set up for Eu3+ Cryptate and fluorescence emission is measured at two different wavelengths (665 nm and 620 nm). The HTRF ratio is then calculated […] for each well to determine the amount of pSTAT1 in the cell lysate, and the data is then normalized to 10 uM GS-1154611 positive and DMSO negative controls.
row,Compound,EC50 [nM]
1,"O=c1[nH]ncc(N[C@H]2CCC[C@@H](Cn3cc(F)c4cc(-c5ncc(C(F)(F)F)cn5)c(F)cc4c3=O)C2)c1C(F)(F)F [Example 481, 4,7-difluoro-2-(((1R,3S)-3-((6-oxo-5-(trifluoromethyl)-1,6-dihydropyridazin-4-yl)amino)cyclohexyl)methyl)-6-(5-(trifluoromethyl)pyrimidin-2-yl)isoquinolin-1(2H)-one]",3.24
2,"CC[C@@H](CCCn1cnc2cc(-c3ncc(OC(F)F)c(N)n3)c(F)cc2c1=O)Nc1cn[nH]c(=O)c1C(F)(F)F [Example 364, (S)-7-(4-amino-5-(difluoromethoxy)pyrimidin-2-yl)-6-fluoro-3-(4-((6-oxo-5-(trifluoromethyl)-1,6-dihydropyridazin-4-yl)amino)hexyl)quinazolin-4(3H)-one]",96.4
3,"Nc1nc(-c2cc3ccn(CCC[C@H](COC(F)F)Nc4cn[nH]c(=O)c4C(F)(F)F)c(=O)c3c(F)c2F)ncc1C(F)F [Example 387, (R)-6-(4-amino-5-(difluoromethyl)pyrimidin-2-yl)-2-(5-(difluoromethoxy)-4-((6-oxo-5-(trifluoromethyl)-1,6-dihydropyridazin-4-yl)amino)pentyl)-7,8-difluoroisoquinolin-1(2H)-one]",10.4
4,"[2H]C([2H])([2H])OC[C@@H](CCCn1cnc2cc(-c3ncc(C(F)(F)F)cn3)c(F)cc2c1=O)Nc1cn[nH]c(=O)c1C(F)(F)F [Example 430, 6-fluoro-3-[(4R)-4-[[6-oxo-5-(trifluoromethyl)-1H-pyridazin-4-yl]amino]-5-(trideuteriomethoxy)pentyl]-7-[5-(trifluoromethyl)pyrimidin-2-yl]quinazolin-4-one]",2.63
5,"Nc1nc(-c2cc3ccn(C[C@@H]4CCC[C@H](Nc5cn[nH]c(=O)c5C(F)(F)F)C4)c(=O)c3cc2F)ccc1C(F)F [Example 269, 6-(6-amino-5-(difluoromethyl)pyridin-2-yl)-7-fluoro-2-(((1R,3S)-3-((6-oxo-5-(trifluoromethyl)-1,6-dihydropyridazin-4-yl)amino)cyclohexyl)methyl)isoquinolin-1(2H)-one]",54.3
6,"C[C@@H](CCCn1cnc2cc(-c3cnc(C(F)(F)F)c(N)n3)c(F)cc2c1=O)Nc1cn[nH]c(=O)c1C(F)(F)F [Example 337, (S)-7-(6-amino-5-(trifluoromethyl)pyrazin-2-yl)-6-fluoro-3-(4-((6-oxo-5-(trifluoromethyl)-1,6-dihydropyridazin-4-yl)amino)pentyl)quinazolin-4(3H)-one]",36.6
7,"CC(CCCn1ccc2cc(-c3ncc(C(F)(F)F)cn3)c(F)cc2c1=O)Oc1cn[nH]c(=O)c1C(F)(F)F (centres unmarked) [Example 136, 7-fluoro-2-[4-[[6-oxo-5-(trifluoromethyl)-1H-pyridazin-4-yl]oxy]pentyl]-6-[5-(trifluoromethyl)pyrimidin-2-yl]isoquinolin-1-one]",75.9
8,"O=c1[nH]ncc(N[C@H](CCCn2ccc3cc(-c4cnc(C(F)F)cn4)c(F)cc3c2=O)COC(F)F)c1C(F)(F)F [Example 424, (R)-2-(5-(difluoromethoxy)-4-((6-oxo-5-(trifluoromethyl)-1,6-dihydropyridazin-4-yl)amino)pentyl)-6-(5-(difluoromethyl)pyrazin-2-yl)-7-fluoroisoquinolin-1(2H)-one]",3.11
9,"COc1cnc(-c2cc3ccn(CCC[C@H](C)Nc4cn[nH]c(=O)c4C(F)(F)F)c(=O)c3cc2F)nc1N1CC(O)(C(F)(F)F)C1 [Example 286, (S)-7-fluoro-6-(4-(3-hydroxy-3-(trifluoromethyl)azetidin-1-yl)-5-methoxypyrimidin-2-yl)-2-(4-((6-oxo-5-(trifluoromethyl)-1,6-dihydropyridazin-4-yl)amino)pentyl)isoquinolin-1(2H)-one]",61.9
10,O=c1[nH]ncc(N[C@H]2CCC[C@@H](Cn3cnc4cc(-c5nc6ccccn6n5)c(F)cc4c3=O)C2)c1C(F)(F)F [Example 487],0.51
11,"C[C@@H](CCCn1ccc2cc(-c3ncc(C#N)c(N)n3)c(F)cc2c1=O)Nc1cn[nH]c(=O)c1C(F)(F)F [Example 101, 4-amino-2-[7-fluoro-1-oxo-2-[(4S)-4-[[6-oxo-5-(trifluoromethyl)-1H-pyridazin-4-yl]amino]pentyl]-6-isoquinolyl]pyrimidine-5-carbonitrile]",12.6
12,"CC(CCCn1ccc2cc(-c3ccc(C(F)(F)F)cn3)ccc2c1=O)Nc1cn[nH]c(=O)c1C(F)(F)F (centres unmarked) [Example 1, 2-(4-((6-oxo-5-(trifluoromethyl)-1,6-dihydropyridazin-4-yl)amino)pentyl)-6-(5-(trifluoromethyl)pyridin-2-yl)isoquinolin-1(2H)-one]",97.8
13,"O=c1[nH]ncc(N2CC[C@H]2CCCn2cnc3cc(-c4ncc(C(F)(F)F)cn4)c(F)cc3c2=O)c1C(F)(F)F (single isomer, unassigned) [Example 152]",0.508
14,"Nc1nc(-c2cc3ccn(CC[C@H]4COC[C@@H]4Nc4cn[nH]c(=O)c4C(F)(F)F)c(=O)c3cc2F)ncc1C(F)(F)F (racemic) [Example 441, (rac) 6-(4-amino-5-(trifluoromethyl)pyrimidin-2-yl)-7-fluoro-2-(2-((3R,4R)-4-((6-oxo-5-(trifluoromethyl)-1,6-dihydropyridazin-4-yl)amino)tetrahydrofuran-3-yl)ethyl)isoquinolin-1(2H)-one]",388
15,"Nc1nc(-c2cc3ccn(C[C@@H]4CCC[C@H](Nc5cn[nH]c(=O)c5C(F)(F)F)C4)c(=O)c3cc2F)cnc1C(F)F [Example 264, 6-(6-amino-5-(difluoromethyl)pyrazin-2-yl)-7-fluoro-2-(((1R,3S)-3-((6-oxo-5-(trifluoromethyl)-1,6-dihydropyridazin-4-yl)amino)cyclohexyl)methyl)isoquinolin-1(2H)-one]",76.1
16,"COc1ncc(-c2cc3ccn(CCC[C@H](COC(F)F)Nc4cn[nH]c(=O)c4C(F)(F)F)c(=O)c3cc2F)nc1N [Example 415, (R)-6-(6-amino-5-methoxypyrazin-2-yl)-2-(5-(difluoromethoxy)-4-((6-oxo-5-(trifluoromethyl)-1,6-dihydropyridazin-4-yl)amino)pentyl)-7-fluoroisoquinolin-1(2H)-one]",2.49
17,"Cc1ncc(-c2cc3ccn(C[C@@H]4CCC[C@H](Nc5cn[nH]c(=O)c5C(F)(F)F)C4)c(=O)c3cc2F)nc1N [Example 262, 6-(6-amino-5-methylpyrazin-2-yl)-7-fluoro-2-(((1R,3S)-3-((6-oxo-5-(trifluoromethyl)-1,6-dihydropyridazin-4-yl)amino)cyclohexyl)methyl)isoquinolin-1(2H)-one]",193
18,"COc1cnc(-c2cc3ncn(CCC[C@H](C)Nc4cn[nH]c(=O)c4C(F)(F)F)c(=O)c3cc2F)nc1N1CC(O)(C(F)(F)F)C1 [Example 287, (S)-6-fluoro-7-(4-(3-hydroxy-3-(trifluoromethyl)azetidin-1-yl)-5-methoxypyrimidin-2-yl)-3-(4-((6-oxo-5-(trifluoromethyl)-1,6-dihydropyridazin-4-yl)amino)pentyl)quinazolin-4(3H)-one]",137
19,"O=c1[nH]ncc(N[C@H](CCCn2ccc3cc(-c4cnc(N5CCNCC5)cn4)c(F)cc3c2=O)COC(F)F)c1C(F)(F)F [Example 423, (R)-2-(5-(difluoromethoxy)-4-((6-oxo-5-(trifluoromethyl)-1,6-dihydropyridazin-4-yl)amino)pentyl)-7-fluoro-6-(5-(piperazin-1-yl)pyrazin-2-yl)isoquinolin-1(2H)-one]",446
20,"C[C@@H](CCCn1cnc2cc(-c3ncc(C4CC4)c(N)n3)c(F)cc2c1=O)Nc1cn[nH]c(=O)c1C(F)(F)F [Example 65, 7-(4-amino-5-cyclopropyl-pyrimidin-2-yl)-6-fluoro-3-[(4S)-4-[[6-oxo-5-(trifluoromethyl)-1H-pyridazin-4-yl]amino]pentyl]quinazolin-4-one]",29.2
21,"O=c1[nH]ncc(N[C@H](CCCn2ccc3cc(-c4ncc(C(F)(F)F)cn4)c(F)cc3c2=O)COC(F)(F)F)c1C(F)(F)F [Example 435, (R)-7-fluoro-2-(4-((6-oxo-5-(trifluoromethyl)-1,6-dihydropyridazin-4-yl)amino)-5-(trifluoromethoxy)pentyl)-6-(5-(trifluoromethyl)pyrimidin-2-yl)isoquinolin-1(2H)-one]",2.83
22,"[2H]C([2H])([2H])OC[C@@H](CCCn1ccc2cc(-c3ncc(C(F)F)cn3)c(F)cc2c1=O)Nc1cn[nH]c(=O)c1C(F)(F)F [Example 428, 6-[5-(difluoromethyl)pyrimidin-2-yl]-7-fluoro-2-[(4R)-4-[[6-oxo-5-(trifluoromethyl)-1H-pyridazin-4-yl]amino]-5-(trideuteriomethoxy)pentyl]isoquinolin-1-one]",4.17
23,"C[C@@H](CCCn1ccc2cc(-c3ncc(OC(F)F)c(N)n3)c(F)cc2c1=O)Nc1cn[nH]c(=O)c1C(F)(F)F [Example 194, (S)-6-(4-amino-5-(difluoromethoxy)pyrimidin-2-yl)-7-fluoro-2-(4-((6-oxo-5-(trifluoromethyl)-1,6-dihydropyridazin-4-yl)amino)pentyl)isoquinolin-1(2H)-one]",6.6
